Laboratory results: US20250215029A1 (Recludix Pharma, Inc., priority 2022, published 2025)

How the values were obtained:
[1] = target: T1, Recombinant STAT6 protein (STAT6 (W123-T658)) (Homo sapiens, UniProt P42226); assay: STAT6 Fluorescence Polarization (FP) Assay; type: binding; conditions: STAT6 (W123-T658) 250 nM, probe 5-FAM-Ap[…]-NH2 2 nM, 45-minute incubation; read-out: STAT6 (FP assay IC50 class)
T1 construct: Recombinant STAT6 protein (STAT6 (W123-T658))
T1 sequence (P42226 123-658): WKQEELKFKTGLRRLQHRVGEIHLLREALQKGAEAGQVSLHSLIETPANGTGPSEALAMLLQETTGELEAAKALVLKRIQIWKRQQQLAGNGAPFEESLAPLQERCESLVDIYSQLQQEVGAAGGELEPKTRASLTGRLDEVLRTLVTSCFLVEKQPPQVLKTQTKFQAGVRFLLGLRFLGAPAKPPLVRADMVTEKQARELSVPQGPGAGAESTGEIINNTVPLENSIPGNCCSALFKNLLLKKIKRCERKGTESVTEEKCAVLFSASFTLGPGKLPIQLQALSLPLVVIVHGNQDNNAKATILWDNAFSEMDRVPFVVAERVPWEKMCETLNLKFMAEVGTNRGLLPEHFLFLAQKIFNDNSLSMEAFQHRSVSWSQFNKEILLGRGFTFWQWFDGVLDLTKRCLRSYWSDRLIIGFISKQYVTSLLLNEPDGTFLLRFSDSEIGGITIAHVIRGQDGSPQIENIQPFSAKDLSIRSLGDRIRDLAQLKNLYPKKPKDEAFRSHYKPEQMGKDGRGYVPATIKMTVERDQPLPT
Method in brief: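 Fluorescence polarization (mP) read-out: 250 nM STAT6 (W123-T658) plus 2 nM 5-FAM phosphotyrosine peptide, 45 min, room temperature, 1% DMSO. IC50 by nonlinear fit of mP against log compound concentration.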

[2] = target: T2, Recombinant STAT3 protein (STAT3 (G127-I722)) (Homo sapiens, UniProt P40763); assay: STAT3 Fluorescence Polarization (FP) Assay; type: binding; conditions: STAT3 (G127-I722) 25 nM, probe 5-FAM-GpYLPQTV-NH2 2 nM, 45-minute incubation; read-out: STAT3 (FP assay IC50 class)
T2 construct: Recombinant STAT3 protein (STAT3 (G127-I722))
T2 sequence (P40763 127-722): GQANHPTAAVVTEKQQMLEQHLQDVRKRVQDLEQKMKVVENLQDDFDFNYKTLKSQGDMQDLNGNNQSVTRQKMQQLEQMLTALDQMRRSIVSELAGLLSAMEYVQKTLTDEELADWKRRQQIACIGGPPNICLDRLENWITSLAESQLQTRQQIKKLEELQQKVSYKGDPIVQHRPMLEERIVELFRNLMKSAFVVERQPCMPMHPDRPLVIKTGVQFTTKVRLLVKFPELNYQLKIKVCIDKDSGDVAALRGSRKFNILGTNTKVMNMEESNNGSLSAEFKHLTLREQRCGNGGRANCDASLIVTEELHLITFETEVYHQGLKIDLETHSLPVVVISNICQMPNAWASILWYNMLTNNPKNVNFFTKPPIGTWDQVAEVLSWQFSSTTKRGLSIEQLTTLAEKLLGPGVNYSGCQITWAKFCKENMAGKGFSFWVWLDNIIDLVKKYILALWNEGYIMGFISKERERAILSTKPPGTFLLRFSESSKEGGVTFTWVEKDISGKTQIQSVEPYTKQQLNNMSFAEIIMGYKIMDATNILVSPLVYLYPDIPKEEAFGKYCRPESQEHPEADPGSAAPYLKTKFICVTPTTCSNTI
Method in brief: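 Read-out is fluorescence polarization (mP) after 45 min at room temperature, with IC50 fitted by nonlinear regression against log compound concentration. Mixture: 25 nM STAT3 (G127-I722), 2 nM 5-FAM-GpYLPQTV-NH2 phosphopeptide, 10 mM HEPES pH 7.4 buffer, 1% DMSO.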

COC(=O)N1CC[C@@H](NC(=O)[C@@H]2CC[C@@H]3CCCC[C@H](NC(=O)c4cc5cc(C(F)P(=O)(O)O)ccc5s4)C(=O)N32)C1 (stereo partly drawn) [Compound 522, (fluoro(2-(((3S,6S,10aS)-3-(((R)-1-(methoxycarbonyl)pyrrolidin-3-yl)carbamoyl)-5-oxodecahydropyrrolo[1,2-a]azocin-6-yl)carbamoyl)benzo[b]thiophen-5-yl)methyl)phosphonic acid]
IC50 [1]: 0.3 to 3 µM
IC50 [2]: 1 to 10 µM

COC(=O)N1CC(NC(=O)[C@@H]2CC[C@@H]3CCCC[C@H](NC(=O)c4cc5cc(C(F)P(=O)(O)O)ccc5s4)C(=O)N32)C1 (some centres unmarked) [Compound 523]
IC50 [1]: 3 to 30 µM
IC50 [2]: 1 to 10 µM

O=C(N[C@H]1CCCC[C@H]2CC[C@@H](C(=O)NC3CN(C(=O)OCc4ccccc4)C3)N2C1=O)c1cc2cc(C(F)P(=O)(O)O)ccc2s1 (stereo partly drawn) [Compound 524, ((2-(((3S,6S,10aS)-3-((1-((benzyloxy)carbonyl)azetidin-3-yl)carbamoyl)-5-oxodecahydropyrrolo[1,2-a]azocin-6-yl)carbamoyl)benzo[b]thiophen-5-yl)fluoromethyl)phosphonic acid]
IC50 [1]: 0.3 to 3 µM
IC50 [2]: 0.1 to 1 µM

COC(=O)N1C[C@H](NC(=O)[C@@H]2CC[C@@H]3CCCC[C@H](NC(=O)c4cc5cc(C(F)P(=O)(O)O)ccc5s4)C(=O)N32)[C@@H](F)C1 (stereo partly drawn) [Compound 525, (fluoro(2-(((3S,6S,10aS)-3-(((3S,4S)-4-fluoro-1-(methoxycarbonyl)pyrrolidin-3-yl)carbamoyl)-5-oxodecahydropyrrolo[1,2-a]azocin-6-yl)carbamoyl)benzo[b]thiophen-5-yl)methyl)phosphonic acid]
IC50 [1]: 0.3 to 3 µM
IC50 [2]: 1 to 10 µM

N#Cc1cccc(C2CN(C(=O)[C@@H]3CC[C@@H]4CCC[C@H](NC(=O)c5cc6cc(C(F)P(=O)(O)O)ccc6s5)C(=O)N43)C2)n1 (some centres unmarked) [Compound 526]
IC50 [1]: 3 to 30 µM
IC50 [2]: < 0.1 µM

O=C(N[C@H]1CCCC[C@H]2CC[C@@H](C(=O)N[C@@H]3CCN(C(=O)OC4CC4)C3)N2C1=O)c1cc2cc(C(F)P(=O)(O)O)ccc2s1 (stereo partly drawn) [Compound 527, ((2-(((3S,6S,10aS)-3-(((R)-1-(cyclopropoxycarbonyl)pyrrolidin-3-yl)carbamoyl)-5-oxodecahydropyrrolo[1,2-a]azocin-6-yl)carbamoyl)benzo[b]thiophen-5-yl)fluoromethyl)phosphonic acid]
IC50 [1]: 0.3 to 3 µM
IC50 [2]: 1 to 10 µM

O=C(N[C@H]1CCCC[C@H]2CC[C@@H](C(=O)NC3CN(C(=O)OC4CC4)C3)N2C1=O)c1cc2cc(C(F)P(=O)(O)O)ccc2s1 (stereo partly drawn) [Compound 528, ((2-(((3S,6S,10aS)-3-((1-(cyclopropoxycarbonyl)azetidin-3-yl)carbamoyl)-5-oxodecahydropyrrolo[1,2-a]azocin-6-yl)carbamoyl)benzo[b]thiophen-5-yl)fluoromethyl)phosphonic acid]
IC50 [1]: 0.3 to 3 µM
IC50 [2]: 1 to 10 µM

CN(C)C(=O)N1CC[C@@H](NC(=O)[C@@H]2CC[C@@H]3CCCC[C@H](NC(=O)c4cc5cc(C(F)P(=O)(O)O)ccc5s4)C(=O)N32)C1 (stereo partly drawn) [Compound 529, ((2-(((3S,6S,10aS)-3-(((R)-1-(dimethylcarbamoyl)pyrrolidin-3-yl)carbamoyl)-5-oxodecahydropyrrolo[1,2-a]azocin-6-yl)carbamoyl)benzo[b]thiophen-5-yl)fluoromethyl)phosphonic acid]
IC50 [1]: 3 to 30 µM
IC50 [2]: 0.1 to 1 µM

CNC(=O)N1CC[C@@H](NC(=O)[C@@H]2CC[C@@H]3CCCC[C@H](NC(=O)c4cc5cc(C(F)P(=O)(O)O)ccc5s4)C(=O)N32)C1 (stereo partly drawn) [Compound 530, (fluoro(2-(((3S,6S,10aS)-3-(((R)-1-(methylcarbamoyl)pyrrolidin-3-yl)carbamoyl)-5-oxodecahydropyrrolo[1,2-a]azocin-6-yl)carbamoyl)benzo[b]thiophen-5-yl)methyl)phosphonic acid]
IC50 [1]: 3 to 30 µM
IC50 [2]: 0.1 to 1 µM

O=C(N[C@H]1CCC[C@H]2CC[C@@H](C(=O)N[C@@H]3CC[C@H](O)C3)N2C1=O)c1cc2cc(C(F)P(=O)(O)O)ccc2s1 (stereo partly drawn) [Compound 531, (fluoro(2-(((3S,6S,9aS)-3-(((1R,3S)-3-hydroxycyclopentyl)carbamoyl)-5-oxooctahydro-1H-pyrrolo[1,2-a]azepin-6-yl)carbamoyl)benzo[b]thiophen-5-yl)methyl)phosphonic acid]
IC50 [1]: 3 to 30 µM
IC50 [2]: 1 to 10 µM

NC(=O)N1CC[C@@H](NC(=O)[C@@H]2CC[C@@H]3CCCC[C@H](NC(=O)c4cc5cc(C(F)P(=O)(O)O)ccc5s4)C(=O)N32)C1 (stereo partly drawn) [Compound 532, ((2-(((3S,6S,10aS)-3-(((R)-1-carbamoylpyrrolidin-3-yl)carbamoyl)-5-oxodecahydropyrrolo[1,2-a]azocin-6-yl)carbamoyl)benzo[b]thiophen-5-yl)fluoromethyl)phosphonic acid]
IC50 [1]: 3 to 30 µM
IC50 [2]: < 0.1 µM

Cn1ccc(N2CC[C@@H](NC(=O)[C@@H]3CC[C@@H]4CCCC[C@H](NC(=O)c5cc6cc(C(F)P(=O)(O)O)ccc6s5)C(=O)N43)C2)n1 (stereo partly drawn) [Compound 533, (fluoro(2-(((3S,6S,10aS)-3-(((R)-1-(1-methyl-1H-pyrazol-3-yl)pyrrolidin-3-yl)carbamoyl)-5-oxodecahydropyrrolo[1,2-a]azocin-6-yl)carbamoyl)benzo[b]thiophen-5-yl)methyl)phosphonic acid]
IC50 [1]: 0.3 to 3 µM
IC50 [2]: 1 to 10 µM

Cc1cccnc1N1CC[C@@H](NC(=O)[C@@H]2CC[C@@H]3CCCC[C@H](NC(=O)c4cc5cc(C(F)P(=O)(O)O)ccc5s4)C(=O)N32)C1 (stereo partly drawn) [Compound 534, (fluoro(2-(((3S,6S,10aS)-3-(((R)-1-(3-methylpyridin-2-yl)pyrrolidin-3-yl)carbamoyl)-5-oxodecahydropyrrolo[1,2-a]azocin-6-yl)carbamoyl)benzo[b]thiophen-5-yl)methyl)phosphonic acid]
IC50 [1]: 3 to 30 µM
IC50 [2]: 0.1 to 1 µM

CO[C@H]1CC[C@@H](NC(=O)[C@@H]2CC[C@@H]3CCC[C@H](NC(=O)c4cc5cc(C(F)P(=O)(O)O)ccc5s4)C(=O)N32)C1 (stereo partly drawn) [Compound 535, (fluoro(2-(((3S,6S,9aS)-3-(((1R,3S)-3-methoxycyclopentyl)carbamoyl)-5-oxooctahydro-1H-pyrrolo[1,2-a]azepin-6-yl)carbamoyl)benzo[b]thiophen-5-yl)methyl)phosphonic acid]
IC50 [1]: 3 to 30 µM
IC50 [2]: 1 to 10 µM

CO[C@@H]1CC[C@@H](NC(=O)[C@@H]2CC[C@@H]3CCC[C@H](NC(=O)c4cc5cc(C(F)P(=O)(O)O)ccc5s4)C(=O)N32)C1 (stereo partly drawn) [Compound 536, (fluoro(2-(((3S,6S,9aS)-3-(((1R,3R)-3-methoxycyclopentyl)carbamoyl)-5-oxooctahydro-1H-pyrrolo[1,2-a]azepin-6-yl)carbamoyl)benzo[b]thiophen-5-yl)methyl)phosphonic acid]
IC50 [1]: 3 to 30 µM
IC50 [2]: 1 to 10 µM

O=C(N[C@H]1CCC[C@H]2CC[C@@H](C(=O)N[C@@H]3CC[C@@H](O)C3)N2C1=O)c1cc2cc(C(F)P(=O)(O)O)ccc2s1 (stereo partly drawn) [Compound 537, (fluoro(2-(((3S,6S,9aS)-3-(((1R,3R)-3-hydroxycyclopentyl)carbamoyl)-5-oxooctahydro-1H-pyrrolo[1,2-a]azepin-6-yl)carbamoyl)benzo[b]thiophen-5-yl)methyl)phosphonic acid]
IC50 [1]: 3 to 30 µM
IC50 [2]: 1 to 10 µM

O=C(N[C@H]1CCC[C@H]2CC[C@@H](C(=O)N3CC(c4nccnc4F)C3)N2C1=O)c1cc2cc(CP(=O)(O)O)ccc2s1 [Compound 538, ((2-(((3S,6S,9aS)-3-(3-(3-fluoropyrazin-2-yl)azetidine-1-carbonyl)-5-oxooctahydro-1H-pyrrolo[1,2-a]azepin-6-yl)carbamoyl)benzo[b]thiophen-5-yl)methyl)phosphonic acid]
IC50 [1]: 3 to 30 µM
IC50 [2]: 1 to 10 µM

O=C(N[C@H]1CCC[C@H]2CC[C@@H](C(=O)N3CC(c4cnccc4O)C3)N2C1=O)c1cc2cc(CP(=O)(O)O)ccc2s1 [Compound 539, ((2-(((3S,6S,9aS)-3-(3-(4-hydroxypyridin-3-yl)azetidine-1-carbonyl)-5-oxooctahydro-1H-pyrrolo[1,2-a]azepin-6-yl)carbamoyl)benzo[b]thiophen-5-yl)methyl)phosphonic acid]
IC50 [1]: 3 to 30 µM
IC50 [2]: < 0.1 µM

O=C(N[C@H]1CCC[C@H]2CC[C@@H](C(=O)N3CC(c4cnccc4O)C3)N2C1=O)c1cc2cc(C(F)P(=O)(O)O)ccc2s1 (stereo partly drawn) [Compound 540, (fluoro(2-(((3S,6S,9aS)-3-(3-(4-hydroxypyridin-3-yl)azetidine-1-carbonyl)-5-oxooctahydro-1H-pyrrolo[1,2-a]azepin-6-yl)carbamoyl)benzo[b]thiophen-5-yl)methyl)phosphonic acid]
IC50 [1]: 0.3 to 3 µM
IC50 [2]: < 0.1 µM
